The text below walks through data of ChEMBL document CHEMBL5518236, “Discovery of Clinical Candidate AZD5462, a Selective Oral Allosteric RXFP1 Agonist for Treatment of Heart Failure” (J Med Chem, 2024).

A short description of data set [1]: Metabolic stability in human hepatocytes assessed as unbound intrinsic clearance measured per 10^6 viable cells/ml at 1 uM measured upto 120 mins by LC-MS/MS analysis. The data set is classed as ADME, cell-based, Hepatocyte. Conditions: 2 h.
A short description of data set [2]: Octanol/water partition coefficient, logD of the compound at pH 7.4 by shake flask method. The class given is physicochemical.
In data set [3] the target is T1, Relaxin receptor 1 (Homo sapiens, UniProt Q9HBX9).
T1 sequence (Q9HBX9 whole entry): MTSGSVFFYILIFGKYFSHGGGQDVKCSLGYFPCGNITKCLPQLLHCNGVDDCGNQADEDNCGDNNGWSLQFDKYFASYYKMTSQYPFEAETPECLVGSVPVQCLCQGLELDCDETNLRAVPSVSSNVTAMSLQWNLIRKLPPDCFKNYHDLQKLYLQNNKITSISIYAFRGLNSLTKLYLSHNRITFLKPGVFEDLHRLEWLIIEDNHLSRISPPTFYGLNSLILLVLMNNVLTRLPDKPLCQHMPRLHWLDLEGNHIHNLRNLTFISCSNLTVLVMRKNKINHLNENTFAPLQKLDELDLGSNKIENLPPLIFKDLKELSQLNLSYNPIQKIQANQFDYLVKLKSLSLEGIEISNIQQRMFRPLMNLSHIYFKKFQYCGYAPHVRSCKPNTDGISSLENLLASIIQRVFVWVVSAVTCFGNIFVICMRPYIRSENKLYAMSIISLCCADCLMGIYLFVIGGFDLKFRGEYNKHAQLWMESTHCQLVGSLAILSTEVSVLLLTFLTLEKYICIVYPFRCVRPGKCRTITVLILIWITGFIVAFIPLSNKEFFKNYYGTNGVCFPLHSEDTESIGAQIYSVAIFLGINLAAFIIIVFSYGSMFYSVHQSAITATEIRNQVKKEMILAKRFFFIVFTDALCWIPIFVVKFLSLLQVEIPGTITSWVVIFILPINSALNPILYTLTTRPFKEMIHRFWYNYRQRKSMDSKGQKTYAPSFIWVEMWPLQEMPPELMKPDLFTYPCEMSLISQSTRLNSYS
Description: Agonist activity at human RXFP1 expressed in CHO cells assessed as increase in cAMP level measured after 2 hrs by HTRF cAMP assay

A short description of data set [4]: Metabolic stability in human liver microsomes assessed as unbound intrinsic clearance at 1 uM measured upto 30 mins by LC-MS/MS analysis. The data set is classed as ADME, Microsome. Conditions: 0.5 h. In general terms: Liver microsomes are a subcellular fraction often used to study metabolism.
Data set [5] is described as follows: Metabolic stability in human hepatocytes assessed as intrinsic clearance measured per 10^6 viable cells/ml at 1 uM measured upto 120 mins by LC-MS/MS analysis. The class given is ADME, cell-based, Hepatocyte. Conditions: read-out: CLH.
The nature of data set [6]: Metabolic stability in human liver microsomes assessed as intrinsic clearance at 1 uM measured upto 30 mins by LC-MS/MS analysis. The data set is classed as ADME, Microsome. The settings on record: read-out: CLH.

Bounds are passed on as bounds.

In the case of `COCc1cc(OC)c(C(=O)N[C@@H]2[C@H]3CC[C@H](C3)[C@@H]2C(=O)NCC2(C)CCC2)cc1O[C@H]1CC[C@@](C)(C(=O)O)CC1`, the CL free in data set [1] is 44 µL/min; in data set [4], 15 µL/min/mg. In data set [2], this molecule registered a logD of 3. The same molecule showed an EC50 in data set [3] of 1000 nM. Further, the hepatocyte CLint at 1 µM in data set [5] was found to be 3.2 µL/min/1e6 cells. For the same molecule, in data set [6], the microsomal CLint at 1 µM is 11 µL/min/mg.

As for `COc1cc(F)c(O[C@H]2CC[C@@](CC#N)(C(=O)O)CC2)cc1C(=O)N[C@@H]1[C@H]2CC[C@H](C2)[C@@H]1C(=O)NCC1(C)CCC1`, the CL free came to 15 µL/min in data set [1] and 18 µL/min/mg in data set [4]. In addition, in data set [2], the logD was found to be 1.4. The concentration for a half-maximal effect (EC50) in data set [3] is 79.4 nM. In data set [5], the hepatocyte CLint at 1 µM is 10 µL/min/1e6 cells. For the same molecule, the microsomal CLint at 1 µM in data set [6] is 13 µL/min/mg.

`CC1(CNC(=O)[C@H]2[C@@H]3CC[C@@H](C3)[C@H]2NC(=O)c2cc(O[C@H]3CC[C@@](C)(C(=O)O)CC3)c(C#N)cn2)CCC1`: the CL free in data set [1] was found to be 4.2 µL/min; in data set [4] it was 20 µL/min/mg. For the same molecule, the logD in data set [2] stood at 2.4. This molecule also showed an EC50 in data set [3] of 100 nM. In addition, in data set [5], the hepatocyte CLint at 1 µM is 3.1 µL/min/1e6 cells. Besides, in data set [6], the microsomal CLint at 1 µM came to 17 µL/min/mg.

Consider `CC1(CNC(=O)[C@H]2[C@@H]3CC[C@@H](C3)[C@H]2N2CCc3cc(F)c(O[C@H]4CC[C@@](C)(C(=O)O)CC4)cc3C2=O)CCC1`, for which the CL free in data set [1] came out at 3 µL/min; in data set [4] it was 70 µL/min/mg. Also, the EC50 in data set [3] was 1580 nM. Further, in data set [5], the hepatocyte CLint at 1 µM worked out at 2.1 µL/min/1e6 cells. Moreover, the microsomal CLint at 1 µM in data set [6] is 44 µL/min/mg.

For the molecule `COc1ccc(O[C@H]2CC[C@@](C)(C(=O)O)CC2)cc1C(=O)N[C@@H]1[C@H]2CC[C@H](C2)[C@@H]1C(=O)NCC1(C)CCC1`, the CL free in data set [1] turned out to be 10 µL/min; in data set [4], 46 µL/min/mg. The molecule further gave a logD in data set [2] of 2.9. Also, the midpoint of the response in data set [3], the EC50, lay at 100 nM. Besides, the hepatocyte CLint at 1 µM in data set [5] worked out at 6.1 µL/min/1e6 cells. For the same molecule, the microsomal CLint at 1 µM in data set [6] turned out to be 36 µL/min/mg.

Consider `COc1c(C#N)cc(O[C@H]2CC[C@@](C)(C(=O)O)CC2)cc1C(=O)N[C@@H]1[C@H]2CC[C@H](C2)[C@@H]1C(=O)NCC1(C)CCC1`, for which the figures for the CL free in data set [1] and in data set [4] were 16 µL/min and 69 µL/min/mg, respectively. Further, the logD in data set [2] is 2.9. Also, the EC50 in data set [3] was 79.4 nM. Besides, the hepatocyte CLint at 1 µM in data set [5] was 11 µL/min/1e6 cells. In data set [6], the microsomal CLint at 1 µM was 50 µL/min/mg.

As to `CC1(CNC(=O)[C@H]2[C@@H]3CC[C@@H](C3)[C@H]2NC(=O)c2ccc(F)c(O[C@H]3CC[C@@](C)(C(=O)O)CC3)c2)CCC1`, the CL free turned out to be 16 µL/min in data set [1] and 8.8 µL/min/mg in data set [4]. This molecule gave a logD in data set [2] of 3. Moreover, in data set [3], the EC50 was 316 nM. In addition, the hepatocyte CLint at 1 µM in data set [5] was found to be 8.4 µL/min/1e6 cells. For the same molecule, the microsomal CLint at 1 µM in data set [6] worked out at 6.6 µL/min/mg.

In data set [2], `COc1cc(F)c(O[C@H]2CC[C@@](C)(c3noc(=O)[nH]3)CC2)cc1C(=O)N[C@@H]1[C@H]2CC[C@H](C2)[C@@H]1C(=O)NCC1(C)CCC1` showed a logD of 3.8. The midpoint of the response in data set [3], the EC50, lay at 79.4 nM. In addition, in data set [4], the CL free was determined as 212 µL/min/mg. In data set [5], the hepatocyte CLint at 1 µM was found to be 12 µL/min/1e6 cells. The microsomal CLint at 1 µM in data set [6] worked out at 87 µL/min/mg.

With `CCc1cc(OC)c(C(=O)N[C@@H]2[C@H]3CC[C@H](C3)[C@@H]2C(=O)NCC2(C)CCC2)cc1O[C@H]1CC[C@@](C)(C(=O)O)CC1`, the figures for the CL free in data set [1] and in data set [4] were 9.1 µL/min and 83 µL/min/mg, respectively. Besides, the logD in data set [2] stood at 4. Moreover, the hepatocyte CLint at 1 µM in data set [5] is 3.9 µL/min/1e6 cells. Also, the microsomal CLint at 1 µM in data set [6] turned out to be 44 µL/min/mg.

With `COc1c(F)cc(O[C@H]2CC[C@@](C)(C(=O)O)CC2)cc1C(=O)N[C@@H]1[C@H]2CC[C@H](C2)[C@@H]1C(=O)NCC1(C)CCC1`, the CL free in data set [1] came to 9.5 µL/min; in data set [4], 73 µL/min/mg. In addition, in data set [2], the logD worked out at 3.3. Besides, the hepatocyte CLint at 1 µM in data set [5] amounted to 5.3 µL/min/1e6 cells. Besides, the microsomal CLint at 1 µM in data set [6] stood at 44 µL/min/mg.

Regarding `CC1(CNC(=O)[C@H]2[C@@H]3CC[C@@H](C3)[C@H]2NC(=O)c2cc(O[C@H]3CC[C@@](C)(C(=O)O)CC3)c(F)cc2OC(F)F)CCC1`, the CL free in data set [1] came out at 52 µL/min; in data set [4], 59 µL/min/mg. Moreover, the logD in data set [2] was 3.3. Besides, the hepatocyte CLint at 1 µM in data set [5] turned out to be 26 µL/min/1e6 cells. In addition, the microsomal CLint at 1 µM in data set [6] stood at 34 µL/min/mg.

Take `COc1cc(Cl)c(O[C@H]2CC[C@@](C)(C(=O)O)CC2)cc1C(=O)N[C@@H]1[C@@H]2CC[C@@H](C2)[C@@H]1C(=O)NCC1(C)CCC1`: the CL free came out at 153 µL/min in data set [1] and 100 µL/min/mg in data set [4]. Besides, the log distribution coefficient (logD) in data set [2] turned out to be 3.6. Also, the hepatocyte CLint at 1 µM in data set [5] was determined as 49 µL/min/1e6 cells. The microsomal CLint at 1 µM in data set [6] was 20 µL/min/mg.

Consider `CC1(CNC(=O)[C@H]2[C@@H]3CC[C@@H](C3)[C@H]2NC(=O)c2cc(O[C@H]3CC[C@@](C)(C(=O)O)CC3)c(F)cc2O)CCC1`, for which the CL free came to 105 µL/min in data set [1] and 17 µL/min/mg in data set [4]. In data set [2], this molecule came in with a logD of 3.3. Moreover, in data set [5], the hepatocyte CLint at 1 µM came out at 58 µL/min/1e6 cells. In data set [6], the microsomal CLint at 1 µM was 12.6 µL/min/mg.

On to `COc1cc(C(F)F)c(O[C@H]2CC[C@@](C)(C(=O)O)CC2)cc1C(=O)N[C@@H]1[C@H]2CC[C@H](C2)[C@@H]1C(=O)NCC1(C)CCC1`, for which the CL free amounted to 11 µL/min in data set [1] and 39 µL/min/mg in data set [4]. For the same molecule, the logD in data set [2] worked out at 3.8. Further, the hepatocyte CLint at 1 µM in data set [5] amounted to 5.1 µL/min/1e6 cells. Moreover, the microsomal CLint at 1 µM in data set [6] came out at 23 µL/min/mg.

Regarding `COc1cc(C2CC2)c(O[C@H]2CC[C@@](C)(C(=O)O)CC2)cc1C(=O)N[C@@H]1[C@H]2CC[C@H](C2)[C@@H]1C(=O)NCC1(C)CCC1`, the CL free came out at 13 µL/min in data set [1] and 62 µL/min/mg in data set [4]. The logD in data set [2] was determined as 3.7. Also, in data set [5], the hepatocyte CLint at 1 µM is 5.3 µL/min/1e6 cells. In addition, the microsomal CLint at 1 µM in data set [6] was 27 µL/min/mg.

For the molecule `COc1cc(F)c(O[C@H]2CC[C@@](C)(c3n[nH]c(=O)o3)CC2)cc1C(=O)N[C@@H]1[C@H]2CC[C@H](C2)[C@@H]1C(=O)NCC1(C)CCC1`, the CL free is 562 µL/min in data set [1] and 2.8 10^3uL/min/mg in data set [4]. This molecule came in with a pH-dependent lipophilicity (logD) in data set [2] of 5.4. Besides, the hepatocyte CLint at 1 µM in data set [5] is 73 µL/min/1e6 cells. Moreover, in data set [6], the microsomal CLint at 1 µM is > 300 µL/min/mg.

Regarding `COc1c(Cl)cc(O[C@H]2CC[C@@](C)(C(=O)O)CC2)cc1C(=O)N[C@@H]1[C@H]2CC[C@H](C2)[C@@H]1C(=O)NCC1(C)CCC1`, the results for the CL free in data set [1] and in data set [4] were 31 µL/min and 147 µL/min/mg, respectively. Besides, the logD in data set [2] was found to be 3.3. Also, the hepatocyte CLint at 1 µM in data set [5] stood at 13 µL/min/1e6 cells. Besides, in data set [6], the microsomal CLint at 1 µM is 81 µL/min/mg.

Regarding `CC1(CNC(=O)[C@H]2[C@@H]3CC[C@@H](C3)[C@H]2NC(=O)c2cc(O[C@H]3CC[C@@](C)(C(=O)O)CC3)cc3c2OCC3)CCC1`, the values for the CL free in data set [1] and in data set [4] were 5.1 µL/min and 30 µL/min/mg, respectively. The logD in data set [2] amounted to 2.9. The hepatocyte CLint at 1 µM in data set [5] is 3.3 µL/min/1e6 cells. Moreover, in data set [6], the microsomal CLint at 1 µM was determined as 25 µL/min/mg.

Broadly, the logD is lipophilicity at a set pH, counting ionised and neutral species. For orientation: EC50 means the concentration needed to bring the measured effect to its halfway point.
